Test results reported in paper PMC6934184, “Selective DNA-PKcs inhibition extends the therapeutic index of localized radiotherapy and chemotherapy” (The Journal of Clinical Investigation, 2019).

Target: T1, CAMK2A (CaMKII alpha) (Homo sapiens, UniProt Q9UQM7)
T1 construct: purchased Thermo Fisher Scientific (Life Technologies) SelectScreen
Assay: SelectScreen Z'LYTE
Assay type: biochemical
Procedure, shortened: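 Percent values come from Thermo SelectScreen profiling of NU5455, combining activity and binding assays. CSF1R was run in Z'LYTE format at Km app ATP, and CAMK1 in Adapta format with ATP listed at 10.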

T1 sequence (Q9UQM7 whole entry): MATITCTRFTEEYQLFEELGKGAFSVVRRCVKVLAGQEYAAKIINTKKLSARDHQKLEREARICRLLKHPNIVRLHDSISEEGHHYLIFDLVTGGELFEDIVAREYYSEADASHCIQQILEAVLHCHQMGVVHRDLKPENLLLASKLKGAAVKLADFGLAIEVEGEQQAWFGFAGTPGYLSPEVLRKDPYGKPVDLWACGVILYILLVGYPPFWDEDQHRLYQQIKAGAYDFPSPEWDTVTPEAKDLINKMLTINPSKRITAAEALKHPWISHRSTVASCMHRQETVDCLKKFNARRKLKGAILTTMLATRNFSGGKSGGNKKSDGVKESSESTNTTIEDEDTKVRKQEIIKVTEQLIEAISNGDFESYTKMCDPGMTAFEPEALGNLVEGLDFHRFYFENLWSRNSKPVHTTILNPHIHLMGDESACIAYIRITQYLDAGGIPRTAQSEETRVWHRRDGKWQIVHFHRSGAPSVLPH

**Q.** `CN(C(=O)CN1CCOCC1)c1ccc2sc3c(-c4cccc5c(=O)cc(N6CC7CCC(C6)O7)oc45)cccc3c2c1` [NU5455] was tested. Which inhibition at 1 µM did it give?
**A.** Its inhibition at 1 µM is -0.6%.
